According to patent US12660821B2, “Herbicide compositions with epyrifenacil and 2,4-D triethanolamine salt with improved properties” (MONSANTO TECHNOLOGY LLC, priority 2020, dated 2026):

Assay: Partition coefficient of compound (A) between organic solvent and water (procedure G1, HPLC)
Assay type: physicochemical
Settings: approx. 25° C.
Description: G1: General Experimental Procedure to Determine the Partition Coefficient of Compound (A) in Solvents
The experimental procedure for the respective solvent is as follows: (1) A solution of 10 g of compound (A) is prepared in 90 g of the respective solvent; (2) An aliquot of 10 g of the solution obtained in step (1) is added to 90 g of water in a glass bottle, which is shaken on a mechanical shaker for 4 hours at ambient temperature (approximately 25° C.); (3) The contents of the glass bottle are permitted to phase separate for 4 days at ambient temperature (approximately 25° C.); and (4) Subsamples of the resulting oil and water phases are taken and analyzed by HPLC to determine the concentrations of compound (A) in oil (Co) and water phases (Cw) respectively. The subsamples are typically centrifuged before HPLC analysis to remove traces of organic solvent from the water phase.
The partition coefficient, analogous to the octanol-water partition coefficient, P, is calculated as Co/Cw. The partition coefficient is conveniently expressed as a logarithm […]=log Co/Cw=P.
The ratio of determined concentrations of compound (A) in the solvent phase and the water phase typically is very large. […]

With CCOC(=O)COc1ncccc1Oc1cc(-n2c(=O)cc(C(F)(F)F)n(C)c2=O)c(F)cc1Cl [compound (A), ethyl [3-[2-chloro-4-fluoro-5-(1-methyl-6-trifluoromethyl-2,4-dioxo-1,2,3,4-tetrahydropyrimidin-3-yl)phenoxy]-2-pyridyloxy]acetate] the “compound (A) in the water phase” value (Aromatic 200 ND as organic solvent) was “undetectable” and the “compound (A) in the water phase” value (acetophenone as organic solvent) was “undetectable”.
